Experimental data from patent publication US4871388A, “Herbicidal liquid concentrate compositions” (priority 1987, dated 1989).

How the values were obtained:
[1] = Solubility of the isomeric mixture at room temperature in various solvents (Table I); assay type: physicochemical
Description: |at Room Temperature in Various Solvents

[2] = Initial solubility and dissolution in water of 7.5 g of liquid concentrate compositions utilizing 1 molar equivalent of different acids (Table II); conditions: solvents with greater than 20% by weight solubility; without addition of 0.2 to 1.0 molar equivalent of acids
[3] = Dilution in water of solutions of the ester(s) to normal agricultural tank-mix rates; assay type: physicochemical; conditions: solvents with >15% solubility; normal agricultural tank-mix rates (1:9-1:99)

isomeric mixture of 6-(5-isopropyl-5-methyl-4-oxo-2-imidazolin-2-yl)-m-toluic acid, methyl ester and 2-(5-isopropyl-5-methyl-4-oxo-2-imidazolin-2-yl)-p-toluic acid, methyl ester
limited solubility by weight ([1]; in many of the solvents listed in Table I): ≤ 15%
% Solubility by Weight ([1]; solvent: 1-Formylpiperidine): > 15%
% Solubility by Weight ([1]; solvent: 1-propanol): > 15%
% Solubility by Weight ([1]; solvent: Amyl acetate): 5%
% Solubility by Weight ([1]; solvent: Amyl alcohol (mixed)): > 15%
% Solubility by Weight ([1]; solvent: Anisole): 5%
% Solubility by Weight ([1]; solvent: Aromatic 150): 5%
% Solubility by Weight ([1]; solvent: Chloroform): > 15%
% Solubility by Weight ([1]; solvent: Diethyl succinate): 5%
% Solubility by Weight ([1]; solvent: Dimethyl sulfoxide): > 15%
% Solubility by Weight ([1]; solvent: Dimethylformamide): > 15%
% Solubility by Weight ([1]; solvent: Methanol): > 15%
% Solubility by Weight ([1]; solvent: Methyl cellosolve): > 15%
% Solubility by Weight ([1]; solvent: Methyl oleate): 5%
% Solubility by Weight ([1]; solvent: N-methylpyrrolidone): > 15%
% Solubility by Weight ([1]; solvent: Oleic acid): 5%
% Solubility by Weight ([1]; solvent: Penn Drake Oil (Kerosene)): 5%
% Solubility by Weight ([1]; solvent: Propylene glycol): 5%
% Solubility by Weight ([1]; solvent: Tenneco 500/1000): 5%
% Solubility by Weight ([1]; solvent: Triethanolamine): 5%
% Solubility by Weight ([1]; solvent: Xylene): 5%
dissolution characteristics of the resulting concentrate [2]: not satisfactory
precipitate formation on dilution in water [3]: unsprayable precipitates are formed
